What was measured:
[1] = Cytotoxicity to HepG2.2.15 cells, MTT method; assay type: cell-based; details: human, HepG2.2.15 cells (HBV-transgenic human hepatoma cell line), day 8, 50% death concentration
Experimental: (§1) Hepatitis B virus (HBV) transgenic human hepatoma carcinoma cell, HepG2.2.15 cell line, can secrete hepatitis B virus particles (containing antigen and DNA) into the supernatant when being incubated.
(§2) Under the influence of antiviral drugs, the contents of HBsAg, HBeAg and viral DNA secreted from cells into the supernatant were detected. Compared with the contents of control groups without drugs, the antiviral activity of the sample drugs can be observed. Meanwhile, the cytotoxic effect of the sample drugs can be detected. The value concentration of the sample drugs which caused 50% of the cells dead measured with MTT method was CC50. And the value concentration of the sample drugs which inhibited 50% of the secretion of HBsAg and HBeAg detected by specific ELISA kits and inhibited 50% of the viral DNA replication detected by fluorescent quantitation PCR method was IC50.
(§3) HepG2.2.15 cells were inoculated into a 96-well plate, and the sample drugs were added next day. The medium and the sample drugs with the same concentration were renewed periodically, and the supernatants were collected on the eighth day to be detected. MTT was added to the cells in the 96-well plate, and MTT dissolving solution was added after 4 hours and reacted overnight. OD570 was measured on ELISA the next day. The cytotoxicity of the sample drugs to HepG2.2.15 cells, the effect of the sample drugs on the growth of the cells, and the concentration of the sample drugs (CC50) resulting in 50% of the cells dead were estimated according to the OD values.

[2] = test system: Hepatitis B virus (HBV) DNA; assay: HBV-DNA replication in HepG2.2.15 supernatant, fluorescent quantification PCR; assay type: cell-based; details: for IC50: Hepatitis B virus, 192 h, HepG2.2.15 supernatant, day 8, PCR, NA means no obvious biological activity or unable to be calculated
Experimental: as §1, §2, §3
A suitable amount of supernatant was added to the same volume of virus extract solution, and was boiled after mixed homogenously, then centrifuged at 10000 rpm under room temperature for 5 minutes, and a suitable amount of supernatant was collected for PCR amplification. Meanwhile five HBV-DNA standard samples were set to establish a standard curve. According to the obtained viral DNA replication value, the inhibition ratios of HBV-DNA replication of each sample drug at different concentrations were calculated, and then the half inhibition rates of the sample drugs were calculated to obtain IC50. For those samples that can not be calculated for IC50 values, they can be represented by ICx and list the corresponding concentration values.

[3] = test system: Duck hepatitis B virus (DHBV); assay: Anti hepatitis B virus activity on animal: DHBV-DNA level in serum of infected ducks, dot blot hybridization; assay type: in vivo, Beijing duck; details: 50 mg/kg oral (intragastric) twice per day for 10 days; for inhibitory effect to DHBV-DNA in duck serum, group analysis (versus virus control group) / inhibitory effect to DHBV-DNA in duck serum, paired analysis (versus T0 of same group): T5, T10, P3
Experimental: The solutions of the sample drugs having required concentration (100 mg/mL) were prepared by using 0.3% sodium carboxymethyl cellulose. Batch number: 00701010
Strong positive serum of Duck hepatitis B virus DNA (DHBV-DNA), collected from Shanghai brown-duck, was store at −70[…].
1-day-old Beijing duck, purchased from Beijing QianJin breeding duck farm.
1-day-old Beijing duck was injected DHBV-DNA positive serum of Shanghai brown-duck via vena cruralis with 0.2 ml/each duck. Blood was taken on the seventh day after infected; serum was separated and stored at −70[…] to be detected.
DHBV infected ducklings were randomly grouped (six ducklings/each group) to carry out drug treatment experiment after 7 days. The administration groups (W28D, W28F, W28M, C37) were set 1 dose group—50 mg/kg respectively, and oral (intragastric) administered twice per day for 10 days (Bid×10). The drugs were replaced with normal saline in virus control group (DHBV). […] Blood was taken from the vena cruralis of the duck after 7 days later of infection, i.e. before drug administration (T0), the fifth day (T5) and the tenth day after drug administration (T10), and the third day after drug withdrawal (P3), then serum was separated and stored at −70[…] to be detected.
The above duck serum was taken and dotted on the membrane to measure the dynamic level of DHBV-DNA in the duck serum. According to the instruction of nick translation kit, dot blot hybridization of duck serum and was carried out using ^32 P labeled DHBV-DNA probe (purchased from Promega Co.). And the dots were shown on the membrane by radioautography. The OD values (the filter was 490 nm) of the dots on the membrane were measured by ELISA. DHBV-DNA density of the serum was calculated and the OD values of the hybridized dot were used as the values of DHBV-DNA level.
a) The mean values (X±SD) of DHBV-DNA OD values of serum at different time of the ducks in each group were calculated, and the DNA levels of serum at different time after drug administration (T5, T10) and the third day after drug withdrawal (P3) for the ducks in each group and were compared with the OD values before administration (T0) of the same group. The values of t1 and P1 were calculated by paired-t test. The significance of the difference was analyzed, and the inhibitory effect of the drugs on the viral infection was estimated.
b). The inhibition ratio (%) to DHBV-DNA of serum at different time after administration (T5, T10) and the third day after drug withdrawal (P3) of the ducks in each group were calculated and illuminated in the figure, and the dynamic state of the inhibition ratios of DHBV-DNA in duck serum in each group were compared.
c) The inhibitions % of DHBV-DNA at different time of the administration group were compared with that at the same time of the virus control group. […] The significance of the difference was analyzed, and the drug action was estimated.

Row | Structure (SMILES) | CC50 at 8 day [1] [µM] | IC50 [2] [µM] | also measured
1 | CCOC(=O)c1nc(-c2ccc(OC)cc2)sc1CC(C)C [C319-3] | > 33.3 | 0.09 | –
2 | CCOC(=O)c1nc(-c2cccc(OC)c2)sc1CC(C)C [C319-4] | > 33.3 | 0.11 | –
3 | CCOC(=O)c1nc(-c2ccccc2OC)sc1CC(C)C [C319-5] | > 33.3 | 0.04 | –
4 | CCOC(=O)C=Cc1nc(-c2nccs2)sc1CC(C)C [C322-2] | > 33.3 | 0.06 | –
5 | CCOC(=O)c1nc(-c2ccc3ccccc3n2)[nH]c1CC(C)C [C323-2] | > 100 | – | –
6 | CCOC(=O)c1nc(-c2cccc(Cl)c2)sc1CC(C)C [C323-3] | > 33.3 | – | –
7 | CCOC(=O)c1nc(-c2ccc3ccccc3n2)oc1CC(C)C [C324-4] | 45.4 | 11.9 | –
8 | CCOC(=O)CCc1nc(-c2nccs2)sc1CC(C)C [C324-5] | > 33.3 | 3 | –
9 | CC(C)Cc1sc(-c2nccs2)nc1C(=O)OC(C)(C)C [C324-6] | > 33.3 | 3.7 | –
10 | CCOC(=O)c1nc(-c2ccc([N+](=O)[O-])cc2)sc1CC(C)C [C334-2] | > 33.3 | 1.06 | –
11 | CCOC(=O)c1nc(-c2cccc([N+](=O)[O-])c2)sc1CC(C)C [C334-3] | > 33.3 | 1.2 | –
12 | CCOC(=O)c1nc(-c2ccccc2[N+](=O)[O-])sc1CC(C)C [C334-4] | > 33.3 | 1.24 | –
13 | CC(C)Cc1sc(-c2nccs2)nc1C(=O)Nc1ccccc1 [C343] | 50 | – | DNA replication ICX: IC19 ([2]; concentration at 19% inhibition, IC50 not calculable): IC19 = 1.23 μM
14 | CCOC(=O)c1nc(-c2ncc(-c3ccccc3)s2)sc1CC(C)C [C358] | > 33.3 | – | DNA replication ICX: IC36 ([2]; concentration at 36% inhibition, IC50 not calculable): IC36 = 1.23 μM
15 | CCOC(=O)c1nc(-c2cccc([N+](=O)[O-])c2OC)sc1CC(C)C [C364-1] | 19.2 | 1.1 | –
16 | CCOC(=O)c1nc(-c2ccc([N+](=O)[O-])c(OC)c2)sc1CC(C)C [C364-2] | > 33.3 | – | –
17 | CCOC(=O)c1nc(-c2ncc(Br)s2)sc1CC(C)C [C375] | > 33.3 | > 33.3 | –
18 | CCOC(=O)c1nc(-c2ccc(NC(=O)OC(C)(C)C)cc2)sc1CC(C)C [C404] | > 33.3 | – | –
19 | CC(C)Cc1sc(-c2nccs2)nc1C(=O)NCc1ccc(F)cc1 [W28F] | 43 | 0.78 | DHBV-DNA rebound 3 days after drug withdrawal (P3) ([3]; then P3): rebounded, it did not reach the original level; inhibitory effect to DHBV-DNA in duck serum, group analysis (versus virus control group) [3]: T5 and T10 showed inhibitory effect to DHBV-DNA with statistical significance; inhibitory effect to DHBV-DNA in duck serum, paired analysis (versus T0 of same group) [3]: T5 and T10 showed inhibitory effect to DHBV-DNA with statistical significance
20 | Cc1cnc(-c2nc(C(=O)OC(C)C)c(CC(C)C)s2)s1 [W28M] | > 20 | < 0.08 | inhibitory effect to DHBV-DNA in duck serum, group analysis (versus virus control group) [3]: did not show any effect with statistical significance; inhibitory effect to DHBV-DNA in duck serum, paired analysis (versus T0 of same group) [3]: T10 and P3 showed inhibitory effect to DHBV-DNA with statistical significance
21 | COC(=O)c1nc(-c2nccs2)sc1CC(C)C [W28] | > 333 | 2.4 | –
22 | CCCCc1sc(-c2nccs2)nc1C(=O)O [Wang268] | 257 | – | DNA replication ICX: IC53 ([2]; concentration at 53% inhibition, IC50 not calculable): IC53 = 125 μM
23 | O=C(O)c1nc(-c2nccs2)sc1Cc1ccccc1 [Wang302] | 192 | 63.1 | –
